Consider 10 compounds from patent US10980781B2, “6-amino-2,4-dihydropyrano [2,3-c] pyrazoles and methods of use” (Purdue Research Foundation, priority 2017, dated 2021).

The target of this experiment is USP7 (Homo sapiens (Human), UniProt Q93009). Nature of the experiment: USP7 inhibition assay with Ub-Rho 110 substrate (fluorescence progress curves). It is filed as biochemical. Conditions: for inhibition at 100 µM: 100 μM compound, 1 nM USP7, 200 nM Ub-Rho 110, 3% DMSO, triplicate; for IC50: 11 compound concentrations, two-fold serial dilutions, 1 nM USP7, 200 nM Ub-Rho 110. The procedure: Each assay was measured in triplicate. […] All reactions contained a final concentration of 3% DMSO. […] The percent inhibition was calculated using Equation (1).
Sequence of USP7 (Q93009 whole entry): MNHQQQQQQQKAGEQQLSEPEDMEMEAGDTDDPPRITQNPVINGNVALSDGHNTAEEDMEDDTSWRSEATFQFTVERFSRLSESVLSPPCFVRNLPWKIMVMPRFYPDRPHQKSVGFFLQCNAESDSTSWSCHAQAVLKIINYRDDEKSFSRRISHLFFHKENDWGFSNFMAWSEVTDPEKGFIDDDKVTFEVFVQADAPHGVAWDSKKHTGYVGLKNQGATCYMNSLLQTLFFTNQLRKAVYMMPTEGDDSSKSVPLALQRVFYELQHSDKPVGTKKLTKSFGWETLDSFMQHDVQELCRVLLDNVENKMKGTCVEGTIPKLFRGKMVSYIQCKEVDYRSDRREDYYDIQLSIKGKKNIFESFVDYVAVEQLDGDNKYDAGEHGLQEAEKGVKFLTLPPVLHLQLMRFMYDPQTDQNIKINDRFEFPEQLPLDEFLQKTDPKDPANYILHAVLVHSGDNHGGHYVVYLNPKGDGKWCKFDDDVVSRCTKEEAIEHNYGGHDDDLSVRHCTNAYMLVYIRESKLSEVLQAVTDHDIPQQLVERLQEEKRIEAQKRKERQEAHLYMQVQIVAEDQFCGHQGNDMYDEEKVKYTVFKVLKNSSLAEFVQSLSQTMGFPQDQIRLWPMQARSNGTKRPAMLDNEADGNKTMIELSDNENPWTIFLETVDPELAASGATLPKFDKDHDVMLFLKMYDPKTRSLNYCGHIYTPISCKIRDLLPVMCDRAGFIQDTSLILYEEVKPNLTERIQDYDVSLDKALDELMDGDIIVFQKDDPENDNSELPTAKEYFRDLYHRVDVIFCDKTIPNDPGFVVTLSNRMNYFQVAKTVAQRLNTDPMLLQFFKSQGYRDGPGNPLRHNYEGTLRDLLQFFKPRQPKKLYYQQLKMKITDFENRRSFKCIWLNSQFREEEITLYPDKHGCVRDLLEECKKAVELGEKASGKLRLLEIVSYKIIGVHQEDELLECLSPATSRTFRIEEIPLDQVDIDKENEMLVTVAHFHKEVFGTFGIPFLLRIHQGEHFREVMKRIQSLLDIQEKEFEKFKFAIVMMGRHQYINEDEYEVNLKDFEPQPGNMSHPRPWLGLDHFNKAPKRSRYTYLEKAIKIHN
The assay design was identical to as described above. The percent inhibition was calculated using Equation 1 and fit to Equation 2 by use of the Enzyme Kinetics Module of Sigma Plot (v13:Systat Software Inc.), to determine the IC50 value.

For orientation: inhibition means the percentage by which the read-out fell short of the control. A low value points to a weak effect. The term IC50 denotes the concentration that gives 50% inhibition. A low value points to higher potency. In turn, `COc1ccc(C2C(C#N)=C(N)Oc3n[nH]c(-c4cccnc4)c32)cc1I` (racemic) [Compound 7f, 6-Amino-4-(3-iodo-4-methoxyphenyl)-3-(pyridin-3-yl)-2,4-dihydropyrano [2,3-c]pyrazole-5-carbonitrile] registered an inhibition at 100 µM of 83 ± 3% and an IC50 of 7.7 ± 0.9 µM.

Regarding `COc1cc(C)c(C2C(C#N)=C(N)Oc3n[nH]c(-c4cccs4)c32)cc1C(C)C` (racemic) [Compound 6r, 6-Amino-4-(5-isopropyl-4-methoxy-2-methylphenyl)-3-(thiophen-2-yl)-2,4-dihydropyrano[2,3-c]pyrazole-5-carbonitrile], at 100 µM the inhibition was 95 ± 4% and the midpoint of inhibition, the IC50, lay at 1.4 ± 0.2 µM.

The compound `N#CC1=C(N)Oc2n[nH]c(-c3cccs3)c2C1c1ccc([N+](=O)[O-])cc1` (racemic) [Compound 6g, 6-Amino-4-(4-nitrophenyl)-3-(thiophen-2-yl)-2,4-dihydropyrano[2,3-c]pyrazole-5-carbonitrile] showed an inhibition at 100 µM of 57 ± 2% and an IC50 of 33 ± 5 µM.

Regarding `COc1ccc(C2C(C#N)=C(N)Oc3c2c(-c2cccs2)nn3C)cc1I` (stereo not drawn) [Compound 9b, 6-Amino-4-(3-iodo-4-methoxyphenyl)-1-methyl-3-(thiophen-2-yl)-1,4-dihydropyrano[2,3-c]pyrazole-5-carbonitrile], the inhibition at 100 µM stood at 0%.

Compound `CCCOc1ccc(C2C(C#N)=C(N)Oc3n[nH]c(-c4cccs4)c32)cc1Br` (stereo not drawn) [Compound 6m, 6-Amino-4-(3-bromo-4-propoxyphenyl)-3-(thiophen-2-yl)-2,4-dihydropyrano [2,3-c]pyrazole-5-carbonitrile] returned an inhibition at 100 µM of 32 ± 5%.

In turn, `N#CC1=C(N)Oc2n[nH]c(-c3cccs3)c2C1c1ccc(N=[N+]=[N-])c(I)c1` (stereo not drawn) [Compound 6p, 6-Amino-4-(4-azido-3-iodophenyl)-3-(thiophen-2-yl)-2,4-dihydropyrano[2,3-c]pyrazole-5-carbonitrile] displayed an inhibition at 100 µM of 62 ± 20%.

Turning to `COc1ccc(C2C(C#N)=C(N)Oc3n[nH]c(-c4cccnc4)c32)cc1Br` (racemic) [Compound 7e, 6-Amino-4-(3-bromo-4-methoxyphenyl)-3-(pyridin-3-yl)-2,4-dihydropyrano [2,3-c]pyrazole-5-carbonitrile], the inhibition at 100 µM was determined as 82 ± 9% and half-maximal inhibition (IC50) required 24 ± 5 µM.

Take `COc1ccc(C2C(C#N)=C(N)Oc3n[nH]c(-c4cccs4)c32)cc1Cl` (racemic) [Compound 6t, 6-Amino-4-(3-chloro-4-methoxyphenyl)-3-(thiophen-2-yl)-2,4-dihydropyrano [2,3-c]pyrazole-5-carbonitrile]: the inhibition at 100 µM turned out to be 55 ± 3% and the IC50 was found to be 7 ± 2 µM.

`N#CC1=C(N)Oc2n[nH]c(-c3cccs3)c2C1c1cccc(Br)c1` (stereo not drawn) [Compound 6c, 6-Amino-4-(3-bromophenyl)-3-(thiophen-2-yl)-2,4-dihydropyrano[2,3-c]pyrazole-5-carbonitrile] returned an inhibition at 100 µM of 0%.

On to `Cc1ccc(C2C(C#N)=C(N)Oc3n[nH]c(-c4cccs4)c32)cc1` (stereo not drawn) [Compound 6e, 6-Amino-3-(thiophen-2-yl)-4-(p-tolyl)-2,4-dihydropyrano [2,3-c]pyrazole-5-carbonitrile], for which the inhibition at 100 µM is 0%.
